Reference: patent US20020137929A1, “1 - (3-heterocyclylphenyl) isothiourea, -isourea, -guanidine and -amidine herbicidal agents” (Intellectual Property Department, BASF Aktiengesellschaft, priority 1998, published 2002)

Assays:
CASOB (Sicklepod) [1] = test: Postemergence herbicidal evaluation; type: in vivo, Cassia obtusifolia; settings: postemergence
Procedure, shortened: (§1)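 Herbicidal effect was judged by eye on a 0–9 scale covering stand, vigor, deformity, size and chlorosis, compared with controls, four to five weeks after seedlings about two weeks old were sprayed (40 psi, ~0.0156–0.500 kg/ha).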

[2] = tested on: CHEAL (Lambsquarters, Common); test: Postemergence herbicidal evaluation; type: in vivo, Chenopodium album; settings: postemergence
Procedure, shortened: as §1

CYPIR (Rice Flatsedge) = test: Preemergence weed control under flooded paddy conditions; type: in vivo, Cyperus iria; settings: rated 3-4 weeks after treatment
Procedure, shortened: (§2)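 Seeds or propagules sown in top 0.5 cm of silt loam soil, flooded 1.5 to 3 cm above surface throughout. Compound in 50/50 v/v aqueous/acetone pipetted into flood water at about 0.0313 to 0.500 kg/ha. Visual 0-9 rating versus control after three to four weeks in greenhouse.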

GALAP (Galium) [3] = test: Preemergence herbicidal evaluation; type: in vivo, Galium aparine; settings: rated 4-5 weeks after treatment
Procedure, shortened: (§3)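 Seeds were planted in potting soil in cups, then sprayed preemergence with the test compound in aqueous acetone at about 0.0156 to 0.500 kg per hectare. Cups were kept under greenhouse conditions and visually rated 4–5 weeks after treatment on a 0–9 scale against an untreated control.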

SETVI (Foxtail, Green) = test: Postemergence herbicidal evaluation; type: in vivo, Setaria viridis; settings: postemergence
Procedure, shortened: as §1

CASOB (Sicklepod) [4] = test: Preemergence herbicidal evaluation; type: in vivo, Cassia obtusifolia; settings: rated 4-5 weeks after treatment
Procedure, shortened: as §3

CYPSE (Flatsedge) [5] = test: Preemergence weed control under flooded paddy conditions; type: in vivo, Cyperus serotinus; settings: rated 3-4 weeks after treatment
Procedure, shortened: as §2

[6] = tested on: SAGPY (Arrowhead (Pygmaea)); test: as above; type: in vivo, Sagittaria pygmaea; settings: rated 3-4 weeks after treatment
Procedure, shortened: as §2

AMBEL (Ragweed, Common) = test: Postemergence herbicidal evaluation; type: in vivo, Ambrosia artemisifolia; settings: postemergence
Procedure, shortened: as §1

ORYSAT (Rice, Tebonnet) = test: Postemergence herbicidal evaluation; type: in vivo, Oryza sativa, (L.) Tebonnet; settings: postemergence
Procedure, shortened: as §1

CYPSE (Flatsedge) [7] = test: Postemergence weed control under flooded paddy conditions; type: in vivo, Cyperus serotinus; settings: postemergence weeds, rated 3 to 4 weeks after treatment
Procedure, shortened: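 With weeds 3 to 5 cm tall and rice at the 1.5 to 2.5 leaf stage, containers were flooded and water held 1.5 to 3 cm above soil. Compounds in 50/50 v/v aqueous/acetone went into the flood water at about 0.0313 to 0.500 kg/ha a.i. Effects were visually rated 0–9 against controls after three to four weeks in the greenhouse.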

[8] = tested on: GLXMAW (Soybean, Williams); test: Postemergence herbicidal evaluation; type: in vivo, Glycine max, (L.) Merr. cv Williams; settings: postemergence
Procedure, shortened: as §1

ZEAMX (Corn, Field) = test: Preemergence herbicidal evaluation; type: in vivo, Zea mays; settings: rated 4-5 weeks after treatment
Procedure, shortened: as §3

GALAP (Galium) [9] = test: Postemergence herbicidal evaluation; type: in vivo, Galium aparine; settings: postemergence
Procedure, shortened: as §1

ECHCG (Barnyardgrass) = test: Postemergence herbicidal evaluation; type: in vivo, Echinochloa crus-galli; settings: postemergence
Procedure, shortened: as §1

COC(=O)C(Cc1ccc(Cl)cc1)N1C(=O)CSC1=Nc1cc(-n2c(=O)cc(C(F)(F)F)n(C)c2=O)c(F)cc1Cl (racemic) [Compound 77, Methyl α-(p-chlorobenzyl)-2-{{2-chloro-5-[3,6-dihydro-3-methyl-2,6-dioxo-4-(trifluoromethyl)-1(2H)-pyrimidinyl]-4-fluorophenyl}imino}-4-oxo-3-thiazolidineacetate, DL-]
6.0: CHEAL herbicidal rating ([2]; rate 0.0158 kg/ha) | SETVI herbicidal rating (SETVI (Foxtail, Green); rate 0.0315 kg/ha)
3.0: ORYSAT herbicidal rating (ORYSAT (Rice, Tebonnet); rate 0.0630 kg/ha)
1.0: CASOB herbicidal rating (CASOB (Sicklepod) [1]; rate 0.0158 kg/ha) | CASOB herbicidal rating (CASOB (Sicklepod) [1]; rate 0.0315 kg/ha) | CASOB herbicidal rating (CASOB (Sicklepod) [1]; rate 0.0630 kg/ha) | Preemergence herbicidal rating GALAP (GALAP (Galium) [3]; rate 0.1250 kg/ha) | Preemergence herbicidal rating GALAP (GALAP (Galium) [3]; rate 0.2500 kg/ha) | SETVI herbicidal rating (SETVI (Foxtail, Green); rate 0.0158 kg/ha) | Preemergence herbicidal rating ZEAMX (ZEAMX (Corn, Field); rate 0.2500 kg/ha) | GALAP herbicidal rating (GALAP (Galium) [9]; rate 0.0158 kg/ha) | GALAP herbicidal rating (GALAP (Galium) [9]; rate 0.0315 kg/ha) | ECHCG herbicidal rating (ECHCG (Barnyardgrass); rate 0.0158 kg/ha) | ECHCG herbicidal rating (ECHCG (Barnyardgrass); rate 0.0315 kg/ha) | ECHCG herbicidal rating (ECHCG (Barnyardgrass); rate 0.0630 kg/ha)
2.0: ORYSAT herbicidal rating (ORYSAT (Rice, Tebonnet); rate 0.0158 kg/ha) | ORYSAT herbicidal rating (ORYSAT (Rice, Tebonnet); rate 0.0315 kg/ha) | Preemergence herbicidal rating ZEAMX (ZEAMX (Corn, Field); rate 0.0156 kg/ha)
0.0: CYPIR herbicidal effect rating (CYPIR (Rice Flatsedge); 0.0313 kg/ha) | CYPIR herbicidal effect rating (CYPIR (Rice Flatsedge); 0.0625 kg/ha) | CYPIR herbicidal effect rating (CYPIR (Rice Flatsedge); 0.1250 kg/ha) | CYPIR herbicidal effect rating (CYPIR (Rice Flatsedge); 0.2500 kg/ha) | Preemergence herbicidal rating GALAP (GALAP (Galium) [3]; rate 0.0156 kg/ha) | Preemergence herbicidal rating GALAP (GALAP (Galium) [3]; rate 0.0313 kg/ha) | Preemergence herbicidal rating GALAP (GALAP (Galium) [3]; rate 0.0625 kg/ha) | Preemergence herbicidal rating CASOB (CASOB (Sicklepod) [4]; rate 0.0156 kg/ha) | Preemergence herbicidal rating CASOB (CASOB (Sicklepod) [4]; rate 0.0313 kg/ha) | Preemergence herbicidal rating CASOB (CASOB (Sicklepod) [4]; rate 0.0625 kg/ha) | Preemergence herbicidal rating CASOB (CASOB (Sicklepod) [4]; rate 0.1250 kg/ha) | Preemergence herbicidal rating CASOB (CASOB (Sicklepod) [4]; rate 0.2500 kg/ha) | CYPSE herbicidal effect rating (CYPSE (Flatsedge) [5]; 0.0313 kg/ha) | CYPSE herbicidal effect rating (CYPSE (Flatsedge) [5]; 0.0625 kg/ha) | CYPSE herbicidal effect rating (CYPSE (Flatsedge) [5]; 0.1250 kg/ha) | SAGPY herbicidal effect rating ([6]; 0.0313 kg/ha) | SAGPY herbicidal effect rating ([6]; 0.0625 kg/ha) | SAGPY herbicidal effect rating ([6]; 0.1250 kg/ha) | SAGPY herbicidal effect rating ([6]; 0.2500 kg/ha) | Herbicidal rating CYPSE (CYPSE (Flatsedge) [7]; Rate 0.0313 kg/ha) | Herbicidal rating CYPSE (CYPSE (Flatsedge) [7]; Rate 0.0625 kg/ha) | Herbicidal rating CYPSE (CYPSE (Flatsedge) [7]; Rate 0.1250 kg/ha) | Preemergence herbicidal rating ZEAMX (ZEAMX (Corn, Field); rate 0.0313 kg/ha) | Preemergence herbicidal rating ZEAMX (ZEAMX (Corn, Field); rate 0.0625 kg/ha) | Preemergence herbicidal rating ZEAMX (ZEAMX (Corn, Field); rate 0.1250 kg/ha)
5.0: GLXMAW herbicidal rating ([8]; rate 0.0315 kg/ha) | GLXMAW herbicidal rating ([8]; rate 0.0630 kg/ha)
4.0: CYPSE herbicidal effect rating (CYPSE (Flatsedge) [5]; 0.2500 kg/ha) | Herbicidal rating CYPSE (CYPSE (Flatsedge) [7]; Rate 0.2500 kg/ha)
3.5: GLXMAW herbicidal rating ([8]; rate 0.0158 kg/ha)
9.0: CHEAL herbicidal rating ([2]; rate 0.0315 kg/ha) | CHEAL herbicidal rating ([2]; rate 0.0630 kg/ha) | AMBEL herbicidal rating (AMBEL (Ragweed, Common); rate 0.0158 kg/ha) | AMBEL herbicidal rating (AMBEL (Ragweed, Common); rate 0.0315 kg/ha) | AMBEL herbicidal rating (AMBEL (Ragweed, Common); rate 0.0630 kg/ha)
7.0: SETVI herbicidal rating (SETVI (Foxtail, Green); rate 0.0630 kg/ha) | GALAP herbicidal rating (GALAP (Galium) [9]; rate 0.0630 kg/ha)
